Laboratory results from ChEMBL document CHEMBL1127354, “Nonpeptidic inhibitors of human leukocyte elastase. 3. Design, synthesis, X-ray crystallographic analysis, and structure-activity relationships for a series of orally active 3-amino-6-phenylpyridin-2-one trifluoromethyl ketones” (J Med Chem, 1994).

What was measured:
[1] = physchem; conditions: octanol/water
[2] = Partition coefficient (logP); assay type: physicochemical; conditions: octanol/water
[3] = Time taken to reach maximum drug concentration in plasma of anesthetized rat at 60 mg/kg oral dose; assay type: ADME, organism-based; parameters: dose 60 mg/kg, route oral
[4] = Oral bioavailability was measured at concentration of 60 mg/kg oral dose; assay type: ADME, organism-based; conditions: eutheria, in vivo
[5] = Maximum concentration of unchanged drug in plasma recorded in the period 0-6 hr of postdose in anesthetized rat at 60 mg/kg oral dose; assay type: ADME, organism-based; parameters: dose 60 mg/kg, route oral
[6] = Time taken to reach maximum drug concentration in plasma of hamster at 40 mg/kg oral dose; assay type: ADME, organism-based; parameters: dose 40 mg/kg, route oral; conditions: cricetinae
[7] = Maximum concentration of unchanged drug in plasma recorded in the period 0-6 hr of postdose in hamster at 40 mg/kg oral dose; assay type: ADME, organism-based; parameters: dose 40 mg/kg, route oral; conditions: cricetinae
[8] = Oral bioavailability was measured at concentration of 40 mg/kg oral dose to hamster; assay type: ADME, organism-based, Cricetulus griseus; conditions: chinese hamster, in vivo
[9] = Time taken to reach half of the concentration in blood plasma of hamster at 40 mg/kg oral dose; assay type: ADME, organism-based; parameters: dose 40 mg/kg, route oral; conditions: cricetinae
[10] = Oral bioavailability was measured at concentration of 25 mg/kg oral dose; assay type: ADME, organism-based; conditions: eutheria, in vivo
[11] = Time taken to reach half of the concentration in blood plasma of anesthetized rat at 25 mg/kg oral dose; assay type: ADME, organism-based; parameters: dose 25 mg/kg, route oral
[12] = Time taken to reach maximum drug concentration in plasma of anesthetized rat at 25 mg/kg oral dose; assay type: ADME, organism-based; parameters: dose 25 mg/kg, route oral
[13] = Maximum concentration of unchanged drug in plasma recorded in the period 0-6 hr of postdose in anesthetized rat at 25 mg/kg oral dose; assay type: ADME, organism-based; parameters: dose 25 mg/kg, route oral
[14] = Oral bioavailability was measured at concentration of 5 mg/kg oral dose in dog; assay type: ADME, organism-based, Canis lupus familiaris; conditions: in vivo
[15] = Time taken to reach half of the concentration in blood plasma of dog at 5 mg/kg oral dose; assay type: ADME, organism-based, Canis lupus familiaris; parameters: dose 5 mg/kg, route oral
[16] = Oral bioavailability was measured at concentration of 40 mg/kg oral dose; assay type: ADME, organism-based; conditions: eutheria, in vivo
[17] = Maximum concentration of unchanged drug in plasma recorded in the period 0-6 hr of postdose to hamster at 40 mg/kg oral dose; assay type: ADME, organism-based; parameters: dose 40 mg/kg, route oral; conditions: cricetinae
[18] = Maximum concentration of unchanged drug in plasma recorded in the period 0-6 hr of postdose in dog at 5 mg/kg oral dose; assay type: ADME, organism-based, Canis lupus familiaris; parameters: dose 5 mg/kg, route oral
[19] = Time taken to reach maximum drug concentration in plasma of dog at 5 mg/kg oral dose; assay type: ADME, organism-based, Canis lupus familiaris; parameters: dose 5 mg/kg, route oral

Compound | logP [1] | further results
CC(C)C(NC(=O)Cn1c(-c2ccccc2)ccc(NC(=O)NCc2cc[n+]([O-])cc2)c1=O)C(=O)C(F)(F)F (centres undefined) | 1.13 | 
CC(C)C(NC(=O)Cn1c(-c2ccccc2)ccc(NC=O)c1=O)C(=O)C(F)(F)F (centres undefined) | 1.84 | 
CC(C)C(NC(=O)Cn1c(-c2ccccc2)ccc(NS(N)(=O)=O)c1=O)C(=O)C(F)(F)F (centres undefined) | 1.17 | 
CC(C)C(NC(=O)Cn1c(-c2ccccc2)ccc(NS(=O)(=O)NCc2ccccc2)c1=O)C(=O)C(F)(F)F (centres undefined) | 2.57 | 
CC(C)C(NC(=O)Cn1c(-c2ccccc2)ccc(NS(=O)(=O)Cc2ccccc2)c1=O)C(=O)C(F)(F)F (centres undefined) |  | logP [2]: Not detected
COc1ccc(S(=O)(=O)Nc2ccc(-c3ccccc3)n(CC(=O)NC(C(=O)C(F)(F)F)C(C)C)c2=O)cc1 (centres undefined) | 2.5 | 
CC(C)C(NC(=O)Cn1c(-c2ccccc2)ccc(NC(=O)OCc2ccc(C(=O)O)cc2)c1=O)C(=O)C(F)(F)F (centres undefined) | 0.84 | 
CC(C)C(NC(=O)Cn1c(-c2ccccc2)ccc(NC(=O)NCc2cccnc2)c1=O)C(=O)C(F)(F)F (centres undefined) | 2.84 | 
CCNc1ccc(-c2ccccc2)n(CC(=O)NC(C(=O)C(F)(F)F)C(C)C)c1=O (centres undefined) | 2.37 | 
CC(C)C(NC(=O)Cn1c(-c2ccccc2)ccc(NC(=O)NCc2ccncc2)c1=O)C(=O)C(F)(F)F (centres undefined) | 2.16 | Tmax [3]: 3 h; bioavailability [4]: 2%; Cmax [5]: 75 ng/mL
CC(=O)Nc1ccc(-c2ccccc2)n(CC(=O)NC(C(=O)C(F)(F)F)C(C)C)c1=O (centres undefined) | 1.78 | Tmax [6]: 0.25 h; Cmax [7]: 2780 ng/mL; bioavailability [8]: 35%; half-life [9]: 1.9 h
CC(C)C(NC(=O)Cn1c(-c2ccccc2)ccc(NC(=O)OCc2ccccc2)c1=O)C(=O)C(F)(F)F (centres undefined) |  | bioavailability [10]: 59%; half-life [11]: 3 h; Tmax [12]: 1.4 h; Cmax [13]: 1890 ng/mL
CC(C)C(NC(=O)Cn1c(-c2ccccc2)ccc(NC(=O)CN2CCOCC2)c1=O)C(=O)C(F)(F)F (centres undefined) | 2 | 
Cc1cc(COC(=O)Nc2ccc(-c3ccccc3)n(CC(=O)NC(C(=O)C(F)(F)F)C(C)C)c2=O)cc(C)n1 (centres undefined) | 2.38 | 
CC(C)C(NC(=O)Cn1c(-c2ccccc2)ccc(NC(=O)OCc2cccc(C(=O)O)c2)c1=O)C(=O)C(F)(F)F (centres undefined) |  | logP [2]: Not detected
CC(C)C(NC(=O)Cn1c(-c2ccccc2)ccc(N)c1=O)C(=O)C(F)(F)F (centres undefined) | 1.74 | 
CC(C)C(NC(=O)Cn1c(-c2ccccc2)ccc(NS(=O)(=O)c2ccccc2)c1=O)C(=O)C(F)(F)F (centres undefined) | 2.53 | 
CC(C)C(NC(=O)Cn1c(-c2ccccc2)ccc(NC(=O)Cc2ccccc2C(=O)O)c1=O)C(=O)C(F)(F)F (centres undefined) | 1.14 | 
CC(C)C(NC(=O)Cn1c(-c2ccccc2)ccc(NC(=O)OCc2ccncc2)c1=O)C(=O)C(F)(F)F (centres undefined) | 2.41 | bioavailability [14]: ~100%; Tmax [6]: 0.25 h; half-life [15]: 0.8 h; bioavailability [16]: 45%; Cmax [17]: 2770 ng/mL; Cmax [18]: 3150 ng/mL; half-life [9]: 1.3 h; Tmax [19]: 1 h
CC(C)C(NC(=O)Cn1c(-c2ccccc2)ccc(NC(=O)NCc2ccccn2)c1=O)C(=O)C(F)(F)F (centres undefined) | 2.15 | 
CC(C)C(NC(=O)Cn1c(-c2ccccc2)ccc(NC(=O)NCc2ccc[n+]([O-])c2)c1=O)C(=O)C(F)(F)F (centres undefined) | 1.48 | 
CC(C)C(NC(=O)Cn1c(-c2ccccc2)ccc(NS(C)(=O)=O)c1=O)C(=O)C(F)(F)F (centres undefined) | 1.77 | 
CC(C)C(NC(=O)Cn1c(-c2ccccc2)ccc(NC(=O)OCc2ccccn2)c1=O)C(=O)C(F)(F)F (centres undefined) | 1.91 | 
CC(C)C(NC(=O)Cn1c(-c2ccccc2)ccc(NC(=O)C(F)(F)F)c1=O)C(=O)C(F)(F)F (centres undefined) | 3.86 | 
CC(=O)Nc1ccc(S(=O)(=O)Nc2ccc(-c3ccccc3)n(CC(=O)NC(C(=O)C(F)(F)F)C(C)C)c2=O)cc1 (centres undefined) |  | logP [2]: Not detected
CC(C)C(NC(=O)Cn1c(-c2ccccc2)ccc(NC(=O)Cc2ccc(C(=O)O)cc2)c1=O)C(=O)C(F)(F)F (centres undefined) | 0.35 | 
